Results: patent publication US11339130B1 (Blade Therapeutics, Inc., priority 2016, dated 2022)
pIC50: −log10 of the molar value.

What was measured:
[1] = molecular target: T1, Human Calpain 1/NS1 (Homo sapiens, UniProt P07384); test: Calpain inhibition continuous fluorescence (FRET) assay, Human Calpain 1/NS1; format: biochemical; settings: read-out: Human Calpain 1/NS1 IC50
T1 sequence (P07384 1-714): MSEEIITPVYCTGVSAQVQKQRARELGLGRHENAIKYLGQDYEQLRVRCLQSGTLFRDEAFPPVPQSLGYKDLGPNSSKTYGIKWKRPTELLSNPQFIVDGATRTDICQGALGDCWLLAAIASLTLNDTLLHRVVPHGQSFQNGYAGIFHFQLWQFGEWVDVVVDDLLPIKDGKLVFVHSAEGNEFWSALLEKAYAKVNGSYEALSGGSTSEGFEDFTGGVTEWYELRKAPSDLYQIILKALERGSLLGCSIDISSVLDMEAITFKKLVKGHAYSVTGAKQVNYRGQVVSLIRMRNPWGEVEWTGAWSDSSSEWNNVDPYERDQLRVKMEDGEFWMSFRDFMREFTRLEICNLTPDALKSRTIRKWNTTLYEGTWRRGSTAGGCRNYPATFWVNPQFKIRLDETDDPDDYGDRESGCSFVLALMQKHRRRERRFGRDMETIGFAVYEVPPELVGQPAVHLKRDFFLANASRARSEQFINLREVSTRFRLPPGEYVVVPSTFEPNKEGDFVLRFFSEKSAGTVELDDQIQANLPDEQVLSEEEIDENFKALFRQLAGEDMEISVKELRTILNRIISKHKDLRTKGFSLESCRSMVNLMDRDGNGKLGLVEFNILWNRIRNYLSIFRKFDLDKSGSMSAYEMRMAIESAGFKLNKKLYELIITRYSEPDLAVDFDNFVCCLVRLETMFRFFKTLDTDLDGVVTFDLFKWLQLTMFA
T1 sequence (P04632 1-268 partner): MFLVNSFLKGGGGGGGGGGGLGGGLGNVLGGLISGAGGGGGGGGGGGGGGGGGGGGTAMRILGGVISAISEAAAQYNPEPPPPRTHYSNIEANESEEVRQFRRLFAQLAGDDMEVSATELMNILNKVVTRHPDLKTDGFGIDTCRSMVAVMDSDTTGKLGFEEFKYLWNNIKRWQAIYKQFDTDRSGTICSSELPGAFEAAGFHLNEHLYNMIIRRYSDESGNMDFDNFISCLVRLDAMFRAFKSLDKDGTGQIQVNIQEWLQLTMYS
How it was run: (§1)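 Buffer 50 mM Tris pH 7.5/100 mM NaCl/1 mM DTT; enzyme + cpd preinc 25C; start w/ FRET substrate + CaCl2; kinetic 490/520 nm, 10 min; slopes 1-5 min; 4-PL IC50.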

[2] = molecular target: T2, Human Calpain 2/NS1 (Homo sapiens, UniProt P17655); test: Calpain inhibition continuous fluorescence (FRET) assay, Human Calpain 2/NS1; format: biochemical; settings: read-out: Human Calpain 2/NS1 IC50
T2 sequence (P17655 1-700): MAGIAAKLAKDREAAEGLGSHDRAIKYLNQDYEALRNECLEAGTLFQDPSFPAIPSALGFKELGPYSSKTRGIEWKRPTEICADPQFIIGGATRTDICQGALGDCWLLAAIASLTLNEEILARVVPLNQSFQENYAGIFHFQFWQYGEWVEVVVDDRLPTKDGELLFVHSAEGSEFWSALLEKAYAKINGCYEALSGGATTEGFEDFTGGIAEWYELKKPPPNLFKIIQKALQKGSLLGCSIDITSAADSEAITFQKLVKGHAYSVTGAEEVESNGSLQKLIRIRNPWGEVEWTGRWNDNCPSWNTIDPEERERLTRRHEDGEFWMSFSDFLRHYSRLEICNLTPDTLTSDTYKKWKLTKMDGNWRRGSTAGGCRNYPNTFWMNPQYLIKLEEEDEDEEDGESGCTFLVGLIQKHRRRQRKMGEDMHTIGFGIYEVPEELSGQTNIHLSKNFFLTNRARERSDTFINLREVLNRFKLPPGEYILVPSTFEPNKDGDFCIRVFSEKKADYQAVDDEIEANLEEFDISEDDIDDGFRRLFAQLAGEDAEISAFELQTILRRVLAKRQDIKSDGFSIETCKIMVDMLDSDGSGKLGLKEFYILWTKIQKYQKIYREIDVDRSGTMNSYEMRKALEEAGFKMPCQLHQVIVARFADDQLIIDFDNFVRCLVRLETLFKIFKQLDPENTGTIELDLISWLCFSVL
T2 sequence (P04632 1-268 partner): T1 sequence (P04632 1-268 partner)
How it was run: as §1

[3] = molecular target: T3, Human Calpain 9/NS1 (Homo sapiens, UniProt O14815); test: Calpain inhibition continuous fluorescence (FRET) assay, Human Calpain 9/NS1; format: biochemical; settings: read-out: Human Calpain 9/NS1 IC50
T3 sequence (O14815 1-690): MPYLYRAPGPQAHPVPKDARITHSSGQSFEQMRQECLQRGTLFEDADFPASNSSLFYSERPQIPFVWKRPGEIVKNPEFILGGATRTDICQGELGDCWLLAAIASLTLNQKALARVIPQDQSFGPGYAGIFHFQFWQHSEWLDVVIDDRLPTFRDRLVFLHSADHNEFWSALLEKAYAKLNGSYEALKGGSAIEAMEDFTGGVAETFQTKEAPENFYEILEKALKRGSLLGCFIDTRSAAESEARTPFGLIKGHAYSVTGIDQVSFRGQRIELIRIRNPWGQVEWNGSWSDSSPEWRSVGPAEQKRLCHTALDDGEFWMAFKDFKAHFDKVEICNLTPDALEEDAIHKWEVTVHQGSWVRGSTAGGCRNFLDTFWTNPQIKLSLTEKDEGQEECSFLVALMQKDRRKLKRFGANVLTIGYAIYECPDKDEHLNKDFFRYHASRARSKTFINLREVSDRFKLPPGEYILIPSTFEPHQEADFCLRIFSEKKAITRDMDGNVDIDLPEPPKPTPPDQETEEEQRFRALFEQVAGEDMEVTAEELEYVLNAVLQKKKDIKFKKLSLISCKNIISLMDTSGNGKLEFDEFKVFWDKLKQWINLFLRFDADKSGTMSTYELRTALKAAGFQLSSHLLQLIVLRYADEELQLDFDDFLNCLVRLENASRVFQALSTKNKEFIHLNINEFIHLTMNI
T3 sequence (P04632 1-268 partner): T1 sequence (P04632 1-268 partner)
How it was run: as §1

[4] = test system: Calpain activity in SH-SY5Y cells (SBDP-150); test: SH-SY5Y Spectrin western blot assay (SBDP-150 breakdown product, A23187-induced); format: cell-based; settings: Homo sapiens; SH-SY5Y cells, A23187-induced SBDP-150, western blot; read-out: SH-SY5Y Spectrin IC50
[5] = test system: Calpain activity in SH-SY5Y cells; test: SH-SY5Y + AMC fluorescence assay (Suc-LLVY-AMC substrate); format: cell-based; settings: read-out: SH-SY5Y + AMC IC50

Row | pIC50 [1] | pIC50 [2] | pIC50 [3] | pIC50 [4] | pIC50 [5] | SMILES
1 | > 5.52 | > 5.52 | > 5.52 | < 4.60 | < 4.60 | Cn1cc(C(=O)NC(Cc2ccccc2)C(=O)C(N)=O)c(-c2cccc3c2OCCO3)n1 (stereo not drawn) [Compound 570, N-(4-amino-3,4-dioxo-1-phenylbutan-2-yl)-3-(2,3-dihydrobenzo[b][1,4]dioxin-5-yl)-1-methyl-1H-pyrazole-4-carboxamide]
2 | > 5.52 | > 5.52 | > 5.52 | < 4.60 | < 4.60 | Cn1cc(C(=O)NC(Cc2ccccc2)C(=O)C(N)=O)c(-c2ccc3ccccc3c2)n1 (stereo not drawn) [Compound 571, N-(4-amino-3,4-dioxo-1-phenylbutan-2-yl)-1-methyl-3-(naphthalen-2-yl)-1H-pyrazole-4-carboxamide]
3 | > 5.52 | > 5.52 | > 5.52 | < 4.60 | > 5.00 | Cn1cc(C(=O)NC(Cc2ccccc2)C(=O)C(N)=O)c(-c2ccccc2C(F)F)n1 (stereo not drawn) [Compound 572, N-(4-amino-3,4-dioxo-1-phenylbutan-2-yl)-3-(2-(difluoromethyl)phenyl)-1-methyl-1H-pyrazole-4-carboxamide]
4 | > 5.52 | > 5.52 | > 5.52 | < 4.60 | > 5.00 | Cn1cc(C(=O)NC(Cc2ccccc2)C(=O)C(N)=O)c(C2CCCCC2)n1 (stereo not drawn) [Compound 573, N-(4-amino-3,4-dioxo-1-phenylbutan-2-yl)-3-cyclohexyl-1-methyl-1H-pyrazole-4-carboxamide]
5 | > 5.52 | > 5.52 | > 5.52 | < 4.60 | < 4.60 | C#CC[C@H](NC(=O)c1cn(C)nc1-c1ccccc1F)C(=O)C(N)=O [Compound 574, (S)—N-(1-amino-1,2-dioxohex-5-yn-3-yl)-3-(2-fluorophenyl)-1-methyl-1H-pyrazole-4-carboxamide]
6 | > 5.52 | > 5.52 | > 5.52 | > 5.00 | < 4.60 | NC(=O)C(=O)C(Cc1ccccc1)NC(=O)c1cn(C(F)F)nc1-c1ccc2cccnc2c1 (stereo not drawn) [Compound 575, N-(4-amino-3,4-dioxo-1-phenylbutan-2-yl)-1-(difluoromethyl)-3-(quinolin-7-yl)-1H-pyrazole-4-carboxamide]
7 | > 5.52 | > 5.52 | > 5.52 | > 5.00 | > 5.00 | NC(=O)C(=O)C(Cc1ccccc1)NC(=O)c1cn(C(F)F)nc1-c1cccc2ncccc12 (stereo not drawn) [Compound 576, N-(4-amino-3,4-dioxo-1-phenylbutan-2-yl)-1-(difluoromethyl)-3-(quinolin-5-yl)-1H-pyrazole-4-carboxamide]
8 | > 5.52 | > 5.52 | > 5.52 | > 5.00 | > 5.00 | NC(=O)C(=O)C(Cc1ccccc1)NC(=O)c1cn(C(F)F)nc1-c1ccc2cnccc2c1 (stereo not drawn) [Compound 577, N-(4-amino-3,4-dioxo-1-phenylbutan-2-yl)-1-(difluoromethyl)-3-(isoquinolin-6-yl)-1H-pyrazole-4-carboxamide]
9 | > 5.52 | > 5.52 | > 5.52 | > 5.00 | > 5.00 | NC(=O)C(=O)C(Cc1ccccc1)NC(=O)c1nsnc1-c1cccc2c1OC(F)(F)O2 (stereo not drawn) [Compound 578, N-(4-amino-3,4-dioxo-1-phenylbutan-2-yl)-4-(2,2-difluorobenzo[d][1,3]dioxol-4-yl)-1,2,5-thiadiazole-3-carboxamide]
10 | > 5.52 | > 5.52 | > 5.52 | < 4.60 | > 5.00 | Cn1cc(C(=O)NC(C(=O)C(N)=O)c2ccc3ccccc3c2)c(-c2ccccc2F)n1 (stereo not drawn) [Compound 579, N-(3-amino-1-(naphthalen-2-yl)-2,3-dioxopropyl)-3-(2-fluorophenyl)-1-methyl-1H-pyrazole-4-carboxamide]
11 | > 5.52 | > 5.52 | > 5.52 | 4.60 to 5.00 | > 5.00 | Cn1cc(C(=O)NC(Cc2cc(F)cc(F)c2)C(=O)C(N)=O)c(-c2ccccc2F)n1 (stereo not drawn) [Compound 580, N-(4-amino-1-(3,5-difluorophenyl)-3,4-dioxobutan-2-yl)-3-(2-fluorophenyl)-1-methyl-1H-pyrazole-4-carboxamide]
12 | > 5.52 | > 5.52 | > 5.52 | < 4.60 | 4.60 to 5.00 | NC(=O)C(=O)C(Cc1ccccc1)NC(=O)c1cn(C(F)F)nc1-c1cnccn1 (stereo not drawn) [Compound 581, N-(4-amino-3,4-dioxo-1-phenylbutan-2-yl)-1-(difluoromethyl)-3-(pyrazin-2-yl)-1H-pyrazole-4-carboxamide]
13 | > 5.52 | > 5.52 | > 5.52 | > 5.00 | 4.60 to 5.00 | Cc1cncc(-c2nn(C(F)F)cc2C(=O)NC(Cc2ccccc2)C(=O)C(N)=O)c1 (stereo not drawn) [Compound 582, N-(4-amino-3,4-dioxo-1-phenylbutan-2-yl)-1-(difluoromethyl)-3-(5-methylpyridin-3-yl)-1H-pyrazole-4-carboxamide]
14 | > 5.52 | > 5.52 | > 5.52 | < 4.60 | < 4.60 | Cc1c(C(=O)NC(Cc2ccccc2)C(=O)C(N)=O)c(-c2ccccc2)nn1C (stereo not drawn) [Compound 583]
15 | > 5.52 | > 5.52 | > 5.52 | > 5.00 | 4.60 to 5.00 | Cc1cccc(-c2oncc2C(=O)NC(Cc2ccccc2)C(=O)C(N)=O)c1F (stereo not drawn) [Compound 584, N-(4-amino-3,4-dioxo-1-phenylbutan-2-yl)-5-(2-fluoro-3-methylphenyl)isoxazole-4-carboxamide]
